{
  "source": "patent US12220412B2",
  "about": "“Methods for administering corticosteroids” (Sparrow Pharmaceuticals, Inc., priority 2018, dated 2025)",
  "type_in_all_cases": "in vivo",
  "design_in_all_cases": "from tissue; host or cells: in vivo, human subjects",
  "key": {"HSD-1 [1]": {"target": "T1, HSD-1 (Homo sapiens, UniProt P28845)", "T1 sequence (P28845 whole entry)": "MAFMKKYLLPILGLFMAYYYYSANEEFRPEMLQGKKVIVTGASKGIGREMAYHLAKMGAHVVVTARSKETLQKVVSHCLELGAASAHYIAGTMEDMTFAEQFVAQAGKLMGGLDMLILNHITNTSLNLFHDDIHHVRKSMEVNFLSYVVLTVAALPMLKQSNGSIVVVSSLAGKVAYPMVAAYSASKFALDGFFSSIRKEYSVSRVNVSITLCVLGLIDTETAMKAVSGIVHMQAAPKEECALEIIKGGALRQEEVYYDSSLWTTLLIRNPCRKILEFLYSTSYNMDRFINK", "experiment": "Urinary (tetrahydrocortisol+allotetrahydrocortisol)/tetrahydrocortisone ratio as indicator of HSD-1 activity in clinical trial subjects", "settings": "for HSD-1 ratio (tetrahydrocortisol [5α + 5β]/tetrahydrocortisone), Day 1 Median / HSD-1 ratio (tetrahydrocortisol [5α + 5β]/tetrahydrocortisone), Day 1 mean: Day 1 single dose; for HSD-1 ratio (tetrahydrocortisol [5α + 5β]/tetrahydrocortisone), Day 1 Median / HSD-1 ratio (tetrahydrocortisol [5α + 5β]/tetrahydrocortisone), Day 1 mean / HSD-1 ratio (tetrahydrocortisol [5α + 5β]/tetrahydrocortisone), Day 18 Mean / HSD-1 ratio (tetrahydrocortisol [5α + 5β]/tetrahydrocortisone), Day 18 Median: 24 h urine; for HSD-1 ratio (tetrahydrocortisol [5α + 5β]/tetrahydrocortisone), Day 18 Mean / HSD-1 ratio (tetrahydrocortisol [5α + 5β]/tetrahydrocortisone), Day 18 Median: Day 18 after daily doses Days 5 through 18", "experimental": "Following a minimum of a 10-hour fast, healthy adult racially diverse male and female subjects were administered Compound A (ASP3662) or placebo for Compound A with 240 mL of room temperature water. Subjects continued to fast from any food and drinks (water was allowed as desired except for 1 hour before and 1 hour after study drug administration) until 4 hours after study drug administration. Urine samples were collected for the measurement of cortisol, cortisone, tetrahydrocortisol (5α, 5β) and tetrahydrocortisone. The cumulative amount of each entity excreted in the urine was calculated for each subject from time zero to 24 hours after dosing (Ae24), from 24 hours after dosing to 48 hours after dosing (Ae48), and Aelast.\nThe ratio of 5α-tetrahydrocortisol+5β-tetrahydrocortisol to urinary tetrahydrocortisone was used as an indicator of HSD-1 activity. Compound A decreased the 5α-tetrahydrocortisol+5β-tetrahydrocortisol to urinary tetrahydrocortisone ratio with increasing dose compared to placebo, resulting in approximately 80% inhibition at 6 mg. […]"}, "HSD-1 [2]": {"target": "T1, HSD-1", "experiment": "Brain HSD-1 occupancy by PET with [11C]AS2471907 after single dose", "settings": "for HSD-1 occupancy: single dose 3 mg", "experimental": "The level and time course of HSD-1 occupancy following single dose administration of Compound A were assessed in healthy male subjects by positron emission tomography (PET). For each PET scan, [11C]AS2471907 was administered by an intravenous infusion pump, followed by up to 120 minutes of dynamic PET data acquisition. Most subjects underwent two PET scans."}, "HSD-1 [3]": {"target": "T1, HSD-1", "experiment": "Direct sigmoidal Emax model of plasma concentration vs brain HSD-1 occupancy (ROIswa)", "settings": "brain HSD-1 occupancy (ROIswa) vs plasma concentration", "experimental": "Simulations of brain enzyme occupancy were conducted for several dosing schemes for Compound A that involved both an initial dose and a maintenance dose.\nThe relationship of Compound A plasma concentrations to region of interest size weighted average (ROIswa) HSD-1 occupancy in brain was best described by a direct sigmoidal Emax model (FIG. 5)."}, "[4]": {"settings": "healthy adult non-Japanese subjects, 20 mg"}, "[5]": {"settings": "healthy adult non-Japanese subjects, 50 mg"}},
  "data": [
    {"smiles": "Cn1c(-c2ccc(C(N)=O)cc2F)nnc1C(C)(C)Oc1c(F)cc(Cl)cc1F", "note": "[Compound A]", "values": [
      {"measurement": "HSD-1 activity (urinary ratio)", "setting": "HSD-1 [1]; healthy adult non-Japanese subjects, 2 mg, 0.7 mg, 0.4 mg and 0.2 mg cohorts, single dose Day 1 then daily doses", "value": "significantly decreased"},
      {"measurement": "HSD-1 ratio (tetrahydrocortisol [5α + 5β]/tetrahydrocortisone), Day 1 Median", "setting": "HSD-1 [1]; [4]", "value": 0.16},
      {"measurement": "HSD-1 ratio (tetrahydrocortisol [5α + 5β]/tetrahydrocortisone), Day 1 mean", "setting": "HSD-1 [1]; [4]", "value": 0.17},
      {"measurement": "HSD-1 ratio (tetrahydrocortisol [5α + 5β]/tetrahydrocortisone), Day 18 Mean", "setting": "HSD-1 [1]; [4]", "value": 0.12},
      {"measurement": "HSD-1 ratio (tetrahydrocortisol [5α + 5β]/tetrahydrocortisone), Day 18 Median", "setting": "HSD-1 [1]; [4]", "value": 0.12},
      {"measurement": "HSD-1 ratio (tetrahydrocortisol [5α + 5β]/tetrahydrocortisone), Day 1 Median", "setting": "HSD-1 [1]; [5]", "value": 0.16},
      {"measurement": "HSD-1 ratio (tetrahydrocortisol [5α + 5β]/tetrahydrocortisone), Day 1 mean", "setting": "HSD-1 [1]; [5]", "value": 0.16},
      {"measurement": "HSD-1 ratio (tetrahydrocortisol [5α + 5β]/tetrahydrocortisone), Day 18 Mean", "setting": "HSD-1 [1]; [5]", "value": 0.11},
      {"measurement": "HSD-1 ratio (tetrahydrocortisol [5α + 5β]/tetrahydrocortisone), Day 18 Median", "setting": "HSD-1 [1]; [5]", "value": 0.10},
      {"measurement": "mean HSD-1 ratio (significantly decreased HSD-1 activity)", "setting": "HSD-1 [1]; healthy adult non-Japanese subjects, doses of 20 mg and 50 mg, both days 1 and 18", "value": "approximately 0.1"},
      {"measurement": "inhibition (decrease of 5α-tetrahydrocortisol+5β-tetrahydrocortisol to urinary tetrahydrocortisone ratio compared to placebo)", "setting": "HSD-1 [1]; healthy adult subjects, fasted, single dose 6 mg", "value": "approximately 80%"},
      {"measurement": "level of inhibition of urinary HSD-1 ratio on increasing the dose", "setting": "HSD-1 [1]; healthy adult subjects, fasted, single dose above 6 mg", "value": "did not substantially increase the level of inhibition"},
      {"measurement": "Occupancy (ROIswa), PET Scan 1", "setting": "HSD-1 [2]; Subject A, 30 mg single dose, 2.62 hrs post dose", "value": 99.68, "unit": "%"},
      {"measurement": "Occupancy (ROIswa), PET Scan 2", "setting": "HSD-1 [2]; Subject A, 30 mg single dose, 23.75 hrs post dose", "value": 99.71, "unit": "%"},
      {"measurement": "Occupancy (ROIswa), PET Scan 1", "setting": "HSD-1 [2]; Subject B, 30 mg single dose, 27.43 hrs post dose", "value": 99.97, "unit": "%"},
      {"measurement": "Occupancy (ROIswa), PET Scan 2", "setting": "HSD-1 [2]; Subject B, 30 mg single dose, 46.75 hrs post dose", "value": 98.83, "unit": "%"},
      {"measurement": "Occupancy (ROIswa), PET Scan 1", "setting": "HSD-1 [2]; Subject C, 6 mg single dose, 3.25 hrs post dose", "value": 99.73, "unit": "%"},
      {"measurement": "Occupancy (ROIswa), PET Scan 2", "setting": "HSD-1 [2]; Subject C, 6 mg single dose, 23.74 hrs post dose", "value": 96.20, "unit": "%"},
      {"measurement": "Occupancy (ROIswa), PET Scan 1", "setting": "HSD-1 [2]; Subject D, 3 mg single dose, 3.27 hrs post dose", "value": 89.91, "unit": "%"},
      {"measurement": "Occupancy (ROIswa), PET Scan 2", "setting": "HSD-1 [2]; Subject D, 3 mg single dose, 45.25 hrs post dose", "value": 83.15, "unit": "%"},
      {"measurement": "Occupancy (ROIswa), PET Scan 1", "setting": "HSD-1 [2]; Subject E, 3 mg single dose, 19.2 hrs post dose", "value": 88.16, "unit": "%"},
      {"measurement": "Occupancy (ROIswa), PET Scan 2", "setting": "HSD-1 [2]; Subject E, 3 mg single dose, 25.43 hrs post dose", "value": 83.85, "unit": "%"},
      {"measurement": "Occupancy (ROIswa), PET Scan 1", "setting": "HSD-1 [2]; Subject F, 3 mg single dose, 42.19 hrs post dose", "value": 58.87, "unit": "%"},
      {"measurement": "Occupancy (ROIswa), PET Scan 2", "setting": "HSD-1 [2]; Subject F, 3 mg single dose, 138.67 hrs post dose", "value": 45.49, "unit": "%"},
      {"measurement": "Occupancy (ROIswa), PET Scan 1", "setting": "HSD-1 [2]; Subject G, 3 mg single dose, 42.46 hrs post dose", "value": 70.96, "unit": "%"},
      {"measurement": "Occupancy (ROIswa), PET Scan 2", "setting": "HSD-1 [2]; Subject G, 3 mg single dose, 189.15 hrs post dose", "value": 25.61, "unit": "%"},
      {"measurement": "Occupancy (ROIswa), PET Scan 1", "setting": "HSD-1 [2]; Subject H, 3 mg single dose, 43.85 hrs post dose", "value": 56.39, "unit": "%"},
      {"measurement": "Occupancy (ROIswa), PET Scan 2", "setting": "HSD-1 [2]; Subject H, 3 mg single dose, 139.36 hrs post dose", "value": 36.31, "unit": "%"},
      {"measurement": "Occupancy (ROIswa), PET Scan 1", "setting": "HSD-1 [2]; Subject I, 3 mg single dose, 46.24 hrs post dose", "value": 60.92, "unit": "%"},
      {"measurement": "Occupancy (ROIswa), PET Scan 1", "setting": "HSD-1 [2]; Subject J, 2 mg single dose, 2.84 hrs post dose", "value": "<0", "unit": "%"},
      {"measurement": "Occupancy (ROIswa), PET Scan 1", "setting": "HSD-1 [2]; Subject K, 1 mg single dose, 3.24 hrs post dose", "value": "<0", "unit": "%"},
      {"measurement": "Occupancy (ROIswa), PET Scan 2", "setting": "HSD-1 [2]; Subject K, 1 mg single dose, 20.66 hrs post dose", "value": "<0", "unit": "%"},
      {"measurement": "Occupancy (ROIswa), PET Scan 1", "setting": "HSD-1 [2]; Subject L, 1 mg single dose, 22.55 hrs post dose", "value": "<0", "unit": "%"},
      {"measurement": "Occupancy (ROIswa), PET Scan 2", "setting": "HSD-1 [2]; Subject L, 1 mg single dose, 47.95 hrs post dose", "value": "<0", "unit": "%"},
      {"measurement": "enzyme occupancy", "setting": "HSD-1 [2]; single 2 and 1 mg doses", "value": "no enzyme occupancy was detected"},
      {"measurement": "HSD-1 occupancy", "setting": "HSD-1 [2]; 19.2-25.43 hours post dose", "value": "~86", "unit": "%"},
      {"measurement": "HSD-1 occupancy", "setting": "HSD-1 [2]; 42.19-46.24 hours post dose", "value": "60-80%"},
      {"measurement": "HSD-1 occupancy", "setting": "HSD-1 [2]; 138.67-139.36 hours post dose", "value": "~40", "unit": "%"},
      {"measurement": "HSD-1 occupancy", "setting": "HSD-1 [2]; 3.25 hours post dose", "value": "~90", "unit": "%"},
      {"measurement": "HSD-1 occupancy", "setting": "HSD-1 [2]; 189.15 hours post dose", "value": 26, "unit": "%"},
      {"measurement": "region of interest size weighted average (ROIswa) HSD-1 occupancy", "setting": "HSD-1 [2]; single doses of 30 and 6 mg, scan times 2.62 to 46.75 hours post dose", "value": "> 96", "unit": "%"},
      {"measurement": "Hill coefficient, estimate", "setting": "HSD-1 [3]", "value": 1.53},
      {"measurement": "Maximum effect, Emax (% HSD-1 occupancy), estimate", "setting": "HSD-1 [3]", "value": 97.6, "unit": "%"},
      {"measurement": "EC50", "setting": "HSD-1 [3]; read-out: Plasma concentration when half Emax is achieved, EC50, estimate (converted)", "value": 0.24, "unit": "nM"}
    ]}
  ]
}
